Values quoted from earlier work as cited in US4499082A, “α-Aminoboronic acid peptides” (E. I. Du Pont de Nemours and Company, priority 1983, dated 1985).

Tests used:
[1] = tested on: hamsters; details: intratracheal administration; cited from earlier work
[2] = biological target: T1, neutrophil elastase (Homo sapiens, UniProt P08246); details: cited from earlier work
T1 sequence (P08246 30-267): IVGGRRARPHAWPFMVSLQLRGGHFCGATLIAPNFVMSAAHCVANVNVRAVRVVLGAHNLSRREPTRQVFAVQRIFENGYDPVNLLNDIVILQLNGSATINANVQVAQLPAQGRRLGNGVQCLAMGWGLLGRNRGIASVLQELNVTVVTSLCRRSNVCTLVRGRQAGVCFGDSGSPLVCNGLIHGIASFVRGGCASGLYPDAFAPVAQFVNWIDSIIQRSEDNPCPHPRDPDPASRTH

[3] = tested on: emphysema in mice; details: cited from earlier work
[4] = tested on: experimentally-induced emphysema in hamsters; details: intraperitoneally; cited from earlier work

For “N-succinyl-L-alanyl-L-alanyl-L-prolyl-L-valine chloromethyl ketone [Suc-Ala-Ala-Pro-ValCH2 Cl]”, the effectiveness [1] is given as “effective”.

For “N-methoxysuccinyl-L-alanyl-L-alanyl-L-prolyl-L-valine chloromethyl ketone [MeOSuc-Ala-Ala-Pro-ValCH2 Cl]”, the “concentration exhibiting inhibitory activity” value [2] is given as 25 µM, the effectiveness ([3]; administered more than fifteen minutes prior to intrapulmonary instillation of elastase) is given as “ineffective” and the treatment of emphysema ([3]; given orally) is given as “effective agent in the treatment of emphysema”.

For “N-acetyl-L-alanyl-L-alanyl-L-prolyl-L-alanine chloromethyl ketone [Ac-Ala-Ala-Pro-AlaCH2 Cl]”, the “block of experimentally-induced emphysema” value [4] is given as “effectively block experimentally-induced emphysema”.
